Measurements: patent US9840508B2, “N-acyl-(3-substituted)-(8-methyl)-5,6-dihydro-[1,2,4]triazolo[4,3-a] pyrazines as selective NK-3 receptor antagonists, pharmaceutical composition, methods for use in NK-3 receptor-mediated disorders” (EUROSCREEN SA, priority 2013, dated 2017)
pIC50, pKi: −log10 of the molar value. Read-outs that look alike come from different tables or passages of the source.

Key:
human NK-2 receptor = human NK-2 receptor (Homo sapiens (Human), UniProt P21452); assay: Selectivity binding assay, human NK-2 ([125I]-Neurokinin A); conditions: CHO cell membranes; 0.1 nM [125I]-Neurokinin A; read-out: hNK-2 (Ki)
human NK-2 receptor, sequence (P21452 whole entry): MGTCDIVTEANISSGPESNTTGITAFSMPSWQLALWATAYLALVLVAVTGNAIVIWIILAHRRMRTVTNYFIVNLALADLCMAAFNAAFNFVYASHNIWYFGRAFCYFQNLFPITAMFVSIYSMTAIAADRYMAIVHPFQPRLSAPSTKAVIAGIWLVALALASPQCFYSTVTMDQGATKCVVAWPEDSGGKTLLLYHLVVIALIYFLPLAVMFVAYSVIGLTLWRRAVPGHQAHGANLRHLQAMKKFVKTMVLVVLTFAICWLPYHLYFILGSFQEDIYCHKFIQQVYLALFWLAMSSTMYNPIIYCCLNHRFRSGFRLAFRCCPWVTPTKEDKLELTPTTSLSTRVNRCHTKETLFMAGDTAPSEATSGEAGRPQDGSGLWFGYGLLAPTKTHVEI
Procedure: (§1) Selectivity of the compounds of the invention was determined over the other human NK receptors, namely NK-1 and NK-2 receptors.
The affinity of compounds of the invention for the NK-2 receptor was evaluated in CHO recombinant cells which express the human NK-2 receptor. Membrane suspensions were prepared from these cells. The following radioligand [^125I]-Neurokinin A (PerkinElmer Cat#NEX252) was used in this assay. Binding assays were performed in a 25 mM HEPES/1 mM CaCl2/5 mM MgCl2/0.5% BSA/10 μg/ml saponin, at pH 7.4. Binding assays consisted of 25 μl of membrane suspension (approximately 3.75 μg of protein/well in a 96 well plate), 50 μl of compound or reference ligand (Neurokinin A) at increasing concentrations (diluted in assay buffer) and 0.1 nM [^125I]-Neurokinin A. The plate was incubated 60 min at 25° C. in a water bath and then filtered over GF/C filters (Perkin Elmer, 6005174, presoaked in assay buffer without saponine for 2 h at room temperature) with a Filtration unit (Perkin Elmer). The radioactivity retained on the filters was measured by using the TopCount-NXT reader (Packard). Competition curves were obtained for compounds of the invention and the concentrations of compounds which displaced 50% of bound radioligand (IC50) were determined and then apparent inhibition constant Ki values were calculated by the following equation: Ki=IC50/(1+[L]/KD) where [L] is the concentration of free radioligand and KD is its dissociation constant at the receptor, derived from saturation binding experiments (Cheng and Prusoff, 1973).

human NK-3 receptor [1] = target: T1, human NK-3 receptor (Homo sapiens (Human), UniProt P29371); assay: Aequorin functional assay with human NK-3 receptor (antagonist testing); assay type: cell-based; conditions: CHO cells expressing human NK-3 receptor; agonist NKA at EC80 (3 nM); read-out: Functional assay: Aequorin assay with human NK-3 receptor hNK-3 - AEQ (antagonist IC50)
T1 sequence (P29371 whole entry): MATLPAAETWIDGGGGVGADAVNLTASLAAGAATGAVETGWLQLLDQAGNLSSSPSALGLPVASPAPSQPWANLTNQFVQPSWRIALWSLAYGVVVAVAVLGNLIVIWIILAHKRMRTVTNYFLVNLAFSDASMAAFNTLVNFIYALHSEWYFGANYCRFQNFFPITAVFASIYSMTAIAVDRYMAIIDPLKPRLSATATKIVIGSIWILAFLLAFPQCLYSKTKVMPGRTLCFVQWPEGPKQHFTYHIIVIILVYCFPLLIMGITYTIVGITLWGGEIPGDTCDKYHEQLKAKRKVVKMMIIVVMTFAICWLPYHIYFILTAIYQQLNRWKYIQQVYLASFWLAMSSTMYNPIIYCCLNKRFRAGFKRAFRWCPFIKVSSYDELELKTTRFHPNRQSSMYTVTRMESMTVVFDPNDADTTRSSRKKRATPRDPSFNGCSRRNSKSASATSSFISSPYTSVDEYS
Procedure: Aequorin Assay with Human NK-3 Receptor
Changes in intracellular calcium levels are a recognized indicator of G protein-coupled receptor activity. The efficacy of compounds of the invention to inhibit NKA-mediated NK-3 receptor activation was assessed by an in vitro Aequorin functional assay. Chinese Hamster Ovary recombinant cells expressing the human NK-3 receptor and a construct that encodes the photoproteinapoaequorin were used for this assay. In the presence of the cofactor coelenterazine, apoaequorin emits a measurable luminescence that is proportional to the amount of intracellular (cytoplasmic) free calcium.
The antagonist activity of compounds of the invention is measured following pre-incubation (3 minutes) of the compound (at various concentrations) with the cells, followed by addition of the reference agonist (NKA) at a final concentration equivalent to the EC80 (3 nM) and recording of emitted light (FDSS 6000 Hamamatsu) over the subsequent 90-second period. The intensity of the emitted light is integrated using the reader software. Compound antagonist activity is measured based on the concentration-dependent inhibition of the luminescence response to the addition of Neurokinin A.
The IC50 values shown in Table 2 indicate that compounds of the invention are potent NK-3 antagonist compounds.

plasma protein = assay: Determination of plasma protein binding (rapid equilibrium dialysis); assay type: in vitro ADME; conditions: 4 hours at 37° C.
Text: Determination of Plasma Protein Binding
The pharmacokinetic and pharmacodynamic properties of chemicals/drugs are largely a function of the reversible binding of chemicals to plasma or serum proteins. Generally, only the unbound or “free fraction” of a drug is available for diffusion or transport across cell membranes, and for interaction with a pharmacological/toxicological target. Consequently, the extent of the plasma protein binding (PPB) of a compound influences its action as well as its distribution and elimination.
The determination of plasma protein binding (PPB) of a compound is enabled by equilibrium dialysis, an accepted and standard method for reliable estimation of the non-bound drug fraction in plasma. RED (Rapid Equilibrium Dialysis) device insert is made of two side-by-side chambers separated by an O-ring-sealed vertical cylinder of dialysis membrane (MWCO˜8,000). Plasma containing drug (at 5 μM or blood concentrations otherwise corresponding to efficacious doses, if known) is added to one chamber while buffer is added to the second. After 4 hours incubation at 37° C. under shaking, an aliquot is removed from each chamber and analyzed by a LC-MS/MS procedure enables the determination of both free and bound drug.
The percentages provided in Table 4 represent for the compounds of the invention the bound drug fraction to the plasma protein. The “free fraction” may be calculated as 100%−% rPPB (i.e. the complementary percentage of that disclosed in Table 4, corresponding to the drug concentration that is unbound and therefore available to engage biological target and elicit pharmacological activity).

human NK-1 receptor = human NK-1 receptor (Homo sapiens (Human), UniProt P25103); assay: Selectivity binding assay, human NK-1 ([3H] substance P); conditions: CHO cell membranes; 2 nM [3H] substance P; read-out: hNK-1 (Ki)
human NK-1 receptor, sequence (P25103 whole entry): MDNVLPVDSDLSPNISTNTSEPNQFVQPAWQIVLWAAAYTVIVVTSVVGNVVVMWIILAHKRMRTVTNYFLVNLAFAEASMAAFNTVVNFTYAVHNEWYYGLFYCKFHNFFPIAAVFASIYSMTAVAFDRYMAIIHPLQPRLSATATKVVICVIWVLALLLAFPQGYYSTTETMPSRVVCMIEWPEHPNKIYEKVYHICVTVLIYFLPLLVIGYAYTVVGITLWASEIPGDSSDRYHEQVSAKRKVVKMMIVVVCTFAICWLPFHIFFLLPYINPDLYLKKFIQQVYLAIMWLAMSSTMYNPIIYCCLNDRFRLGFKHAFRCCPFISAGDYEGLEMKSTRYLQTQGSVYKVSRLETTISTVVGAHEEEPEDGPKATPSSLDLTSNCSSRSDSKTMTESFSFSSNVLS
Procedure: as §1
The affinity of compounds of the invention for the NK-1 receptor was evaluated in CHO recombinant cells which express the human NK-1 receptor. Membrane suspensions were prepared from these cells. The following radioligand: [^3H] substance P (PerkinElmer Cat#NET111520) was used in this assay. Binding assays were performed in a 50 mM Tris/5 mM MnCl2/150 mM NaCl/0.1% BSA at pH 7.4. Binding assays consisted of 25 μl of membrane suspension (approximately 5 μg of protein/well in a 96 well plate), 50 μl of compound or reference ligand (Substance P) at increasing concentrations (diluted in assay buffer) and 2 nM [^3H] substance P. The plate was incubated 60 min at 25° C. in a water bath and then filtered over GF/C filters (Perkin Elmer, 6005174, presoaked in 0.5% PEI for 2 h at room temperature) with a Filtration unit (Perkin Elmer). The radioactivity retained on the filters was measured by using the TopCount-NXT reader (Packard). Competition curves were obtained for compounds of the invention and the concentrations of compounds which displaced 50% of bound radioligand (IC50) were determined and then apparent inhibition constant Ki values were calculated by the following equation: Ki=IC50/(1+[L]/KD) where [L] is the concentration of free radioligand and KD is its dissociation constant at the receptor, derived from saturation binding experiments (Cheng and Prusoff, 1973).

human NK-3 receptor [2] = target: T1, human NK-3 receptor; assay: 3H-SB222200 binding competition assay with human NK-3 receptor
Procedure: The affinity of compounds of the invention for the human NK-3 receptor was determined by measuring the ability of compounds of the invention to competitively and reversibly displace a well-characterized NK-3 radioligand in a concentration-dependent manner.
^3H-SB222200 Binding Competition Assay with Human NK-3 Receptor
The ability of compounds of the invention to inhibit the binding of the NK-3 receptor selective antagonist ^3H-SB222200 was assessed by an in vitro radioligand binding assay. Membranes were prepared from Chinese hamster ovary recombinant cells stably expressing the human NK-3 receptor. The membranes were incubated with 5 nM ^3H-SB222200 (ARC) in a HEPES 25 mM/NaCl 0.1M/CaCl2 1 mM/MgCl2 5 mM/BSA 0.5%/Saponin 10 μg/ml buffer at pH 7.4 and various concentrations of compounds of the invention. The amount of ^3H-SB222200 bound to the receptor was determined after filtration by the quantification of membrane associated radioactivity using the TopCount-NXT reader (Packard).

[3] = CHO cell membranes, 5 nM 3H-SB222200, Table 2, read-out: Competitive binding assay with human NK-3 receptor hNK-3 (Ki)
[4] = Table 3 (selectivity table), read-out: hNK-3 (Ki)

SMILES | pKi (human NK-2 receptor) | pIC50 (human NK-3 receptor [1]) | Exposure (% rPPB), bound drug fraction to the plasma protein (plasma protein) [%] | pKi (human NK-1 receptor) | pKi (human NK-3 receptor [2]; [3]) | pKi (human NK-3 receptor [2]; [4])
C[C@@H]1c2nnc(-c3csc(C(F)(F)F)n3)n2CCN1C(=O)c1cc(F)c(F)c(F)c1F [Compound 12, (R)-(8-methyl-3-(2-(trifluoromethyl)thiazol-4-yl)-5,6-dihydro-[1,2,4]triazolo[4,3-a]pyrazin-7(8H)-yl)(2,3,4,5-tetrafluorophenyl)methanone] | 5.33 | 7.48 | 67 | 4.72 | 7.54 | 7.54
Cc1ccc(-c2nnc3n2CCN(C(=O)c2ccc(F)c(Cl)c2)[C@@H]3C)o1 [Compound 8, (R)-(3-chloro-4-fluorophenyl)(8-methyl-3-(5-methylfuran-2-yl)-5,6-dihydro-[1,2,4]triazolo[4,3-a]pyrazin-7(8H)-yl)methanone] | 5.04 | 7.21 | 47 | 4.74 | 7.36 | 7.36
Cc1nc(-c2nnc3n2CCN(C(=O)c2ccc(F)cc2)[C@@H]3C)cs1 [Compound 2, (R)-(4-fluorophenyl)(8-methyl-3-(2-methylthiazol-4-yl)-5,6-dihydro-[1,2,4]triazolo[4,3-a]pyrazin-7(8H)-yl)methanone] | < 4.52 | 6.80 | 17 | < 4.52 | 7.00 | 7.00
C[C@@H]1c2nnc(-c3csc(C(F)(F)F)n3)n2CCN1C(=O)c1ccc(Cl)cc1 [Compound 18, (R)-(4-chlorophenyl)(8-methyl-3-(2-(trifluoromethyl)thiazol-4-yl)-5,6-dihydro-[1,2,4]triazol[4,3-a]pyrazin-7(8H)-yl)methanone] | 5.23 | 7.51 | 78 | 4.82 | 7.68 | 7.68
Cc1ccc(-c2nnc3n2CCN(C(=O)c2ccc(F)c(F)c2F)[C@@H]3C)o1 [Compound 6, (R)-(8-methyl-3-(5-methylfuran-2-yl)-5,6-dihydro-[1,2,4]triazolo[4,3-a]pyrazin-7(8H)-yl)(2,3,4-trifluorophenyl)methanone] | < 4.52 | 7.00 | 37 | < 4.52 | 7.13 | 7.13
C[C@@H]1c2nnc(-c3csc(C(F)(F)F)n3)n2CCN1C(=O)c1ccc(F)c(F)c1 [Compound 13, (R)-(3,4-difluorophenyl)(8-methyl-3-(2-(trifluoromethyl)thiazol-4-yl)-5,6-dihydro-[1,2,4]triazolo[4,3-a]pyrazin-7(8H)-yl)methanone] | 5.15 | 7.59 | 51 | 4.68 | 7.70 | 7.70
Cc1ccc(-c2nnc3n2CCN(C(=O)c2cc(F)c(F)c(F)c2F)[C@@H]3C)o1 [Compound 4, (R)-(8-methyl-3-(5-methylfuran-2-yl)-5,6-dihydro-[1,2,4]triazolo[4,3-a]pyrazin-7(8H)-yl)(2,3,4,5-tetrafluorophenyl)methanone] | 4.52 | 7.14 | 30 | < 4.52 | 7.28 | 7.28
C[C@@H]1c2nnc(-c3csc(C(F)(F)F)n3)n2CCN1C(=O)c1cc(F)c(F)c(F)c1 [Compound 15, (R)-(8-methyl-3-(2-(trifluoromethyl)thiazol-4-yl)-5,6-dihydro-[1,2,4]triazolo[4,3-a]pyrazin-7(8H)-yl)(3,4,5-trifluorophenyl)methanone] | 5.46 | 7.62 | 60 | 4.62 | 7.89 | 7.89
C[C@@H]1c2nnc(-c3csc(C(F)(F)F)n3)n2CCN1C(=O)c1ccc(Cl)c(F)c1 [Compound 17, (R)-(4-chloro-3-fluorophenyl)(8-methyl-3-(2-(trifluoromethyl)thiazol-4-yl)-5,6-dihydro-[1,2,4]triazolo[4,3-a]pyrazin-7(8H)-yl)methanone] | 5.28 | 7.43 | 84 | 4.92 | 7.66 | 7.66
Cc1ccc(-c2nnc3n2CCN(C(=O)c2ccc(Cl)cc2)[C@@H]3C)o1 [Compound 10, (R)-(4-chlorophenyl)(8-methyl-3-(5-methylfuran-2-yl)-5,6-dihydro-[1,2,4]triazolo[4,3-a]pyrazin-7(8H)-yl)methanone] | 4.64 | 7.13 | 56 | 4.60 | 7.44 | 7.44
Cc1ccc(-c2nnc3n2CCN(C(=O)c2ccc(F)c(F)c2)[C@@H]3C)o1 [Compound 5, (R)-(3,4-difluorophenyl)(8-methyl-3-(5-methylfuran-2-yl)-5,6-dihydro-[1,2,4]triazolo[4,3-a]pyrazin-7(8H)-yl)methanone] | 4.51 | 7.28 | 27 | < 4.52 | 7.38 | 7.38
